From patent US7759510B2, “Platinum complexes and methods of use” (University of South Florida, priority 2003, dated 2010)
Where two headings read alike, the source gives them in different places.

Key:
Stat3 = molecular target: T1, Stat3 (Mus musculus, UniProt P42227); test: EMSA of nuclear extracts, Stat3 DNA-binding activity to hSIE probe; type: biochemical; details: in vitro
T1 construct: Nuclear extracts were prepared from NIH3T3/hEGFR cell that overexpress human epidermal growth factor (EGF) receptor and stimulated with EGF; endogenous in cells; host or cells: NIH3T3/hEGFR fibroblasts, EGF-stimulated (6 ng/ml, 15 min), nuclear extract
Method: Nuclear Extract Preparation and Analysis by EMSA of HK-Designated Platinum Complexes.
Nuclear extracts were prepared from NIH3T3/hEGFR cell that overexpress human epidermal growth factor (EGF) receptor and stimulated with EGF (6 ng/ml) for 15 min. Nuclear extracts were pre-incubated with compounds for 30 min at room temperature prior to incubation with radiolabeled probe. The ^32P-labeled oligonucleotide probe used is hSIE (high affinity sis-inducible element, m67 variant, 5′-[…]-3′) (SEQ ID NO:1) that binds both Stat1 and Stat3.
Other platinum (IV) complexes were evaluated for inhibitory activity against STAT DNA-binding in vitro.

A549 cells = test: MTT assay, percent survival of A549 cells; type: cell-based; details: A549; for IC50: read-out: Calculated IC 50 (uM concentration)
Method: 1. Prepare a suspension of A549 cells at 2×10^5 cells per mL in supplemented DMEM/F12 growth medium.
2. Plate 2×10^4 cells per well in a 96 well cell culture plate by adding 100 μL of stock suspension to each well.
3. For each platinum compound (already in solution), prepare a readily usable stock solution in DMEM/F12 medium.
4. For each compound generate triplicate trials of 0, 10, 20, 30, 40, 50, 60, and 70 μM concentration. This is achieved in situ by adding appropriate volumes of stock solution to each well along with the volume of untreated medium necessary to generate the desired concentration in a final volume of 200 μL.
5. Gently agitate plates to mix contents. Incubate at 37° C., 7% CO2 for 45 hours.
6. Add 20 μL of 5 mg/mL MTT solution (in PBS) to each well.
7. Gently agitate plates to mix contents and incubate an additional 3 hours to allow product development.
8. Remove plates from incubator and agitate to cause settling of formazan product.
9. Aspirate out liquid contents of each well using needle and syringe and discard.
10. Add 200 μL DMSO to each well to dissolve formazan product.
11. Agitate plates until all of the formazan product is in solution and no purple crystals remain on the bottom surface of the wells.
12. Read the absorbance of each well at […] using Varian software for Cary 50 UV-vis Spectrophotometer with fiber optic probe accessory.
(§1) MTT assays are used for the quantitative determination of cellular proliferation and activation and for the quantitation of in vitro tumor cell sensitivity to anti-cancer compounds. The assay is based on the cleavage of the yellow tetrazolium salt MTT into purple colored formazan by metabolically active cells. Solubilized formazan product can be photometrically quantitated using an ELISA plate reader. A decrease in the number of living cells results in a decrease in total metabolic activity which leads to a decrease in color formation. Platinum complexes of the present invention were tested in MTT assays using A549 cells to determine anti-cancer cell activity. […] FIGS. 1, 2, and 4 show percent survival versus platinum complex concentration in graphical form.
as §1, with “FIGS. 8, 9,” for “FIGS. 1, 2,”, “and 11” for “and 4”

T1 sequence (P42227 whole entry): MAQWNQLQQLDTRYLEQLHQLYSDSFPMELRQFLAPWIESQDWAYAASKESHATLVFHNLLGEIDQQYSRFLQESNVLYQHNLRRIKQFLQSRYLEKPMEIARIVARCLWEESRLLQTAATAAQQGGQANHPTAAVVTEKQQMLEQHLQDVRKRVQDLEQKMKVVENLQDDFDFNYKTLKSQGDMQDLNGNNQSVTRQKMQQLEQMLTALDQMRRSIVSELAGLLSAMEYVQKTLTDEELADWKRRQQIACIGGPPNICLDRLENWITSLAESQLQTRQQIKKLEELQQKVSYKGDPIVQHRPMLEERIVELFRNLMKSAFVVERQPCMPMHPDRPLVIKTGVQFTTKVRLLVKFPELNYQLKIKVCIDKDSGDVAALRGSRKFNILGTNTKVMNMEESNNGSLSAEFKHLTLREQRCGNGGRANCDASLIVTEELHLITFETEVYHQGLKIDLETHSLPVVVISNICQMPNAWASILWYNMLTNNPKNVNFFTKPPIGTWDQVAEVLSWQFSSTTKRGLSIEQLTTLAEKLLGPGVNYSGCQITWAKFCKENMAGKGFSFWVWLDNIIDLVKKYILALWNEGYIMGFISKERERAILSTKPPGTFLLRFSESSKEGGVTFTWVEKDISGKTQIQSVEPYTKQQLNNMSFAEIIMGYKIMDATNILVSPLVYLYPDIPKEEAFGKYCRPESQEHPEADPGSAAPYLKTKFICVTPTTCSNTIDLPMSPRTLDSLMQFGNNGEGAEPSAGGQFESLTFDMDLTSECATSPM

With `N[N](c1cc([N+](=O)[O-])cc([N+](=O)[O-])c1)[Pt]([NH2])([NH2])([Cl])([Cl])[N+](=O)[O-]` [CPA-43] the “Disruption of Stat3 activity / ability to bind its consensus binding sequence” value (Stat3) was “strongly disrupt Stat3 activity”, the “Average Absorbance” value (A549 cells; Table 1, 10 μM) was 2.4150 and the “Percent Survival” value (A549 cells; Table 1, 10 μM) was 102.2828%. The “Average Absorbance” value (A549 cells; Table 1, 20 μM) was 1.8554, the “Percent Survival” value (A549 cells; Table 1, 20 μM) was 78.5820% and the “Average Absorbance” value (A549 cells; Table 1, 30 μM) was 2.1451. For the same compound, the “Percent Survival” value (A549 cells; Table 1, 30 μM) was 90.8517%, the “Average Absorbance” value (A549 cells; Table 1, 40 μM) was 1.3030 and the “Percent Survival” value (A549 cells; Table 1, 40 μM) was 55.1861%. The IC50 (A549 cells; Table 2, extrapolated from incomplete data (10-40 uM; CPA-31 10-30 μM), outside the measured range) was 49.6 µM, the “Average Absorbance” value (A549 cells; Table 3, 10 μM) was 2.5840 and the “Percent Survival” value (A549 cells; Table 3, 10 μM) was 105.7759%. The “Average Absorbance” value (A549 cells; Table 3, 20 μM) was 2.2922, the “Percent Survival” value (A549 cells; Table 3, 20 μM) was 93.8311% and the “Average Absorbance” value (A549 cells; Table 3, 30 μM) was 1.4833. For the same compound, the “Percent Survival” value (A549 cells; Table 3, 30 μM) was 60.7188%, the “Average Absorbance” value (A549 cells; Table 3, 40 μM) was 0.6479 and the “Percent Survival” value (A549 cells; Table 3, 40 μM) was 26.5218%. For the same compound, the “Average Absorbance” value (A549 cells; Table 3, 50 μM) was 0.4641, the “Percent Survival” value (A549 cells; Table 3, 50 μM) was 18.9979% and the “Average Absorbance” value (A549 cells; Table 3, 60 μM) was 0.6504. For the same compound, the “Percent Survival” value (A549 cells; Table 3, 60 μM) was 26.6241%, the “Average Absorbance” value (A549 cells; Table 3, 70 μM) was 0.5059 and the “Percent Survival” value (A549 cells; Table 3, 70 μM) was 20.7090%.
With `Cn1c(=O)c2[nH]cnc2n(C)c1=O` [Theophylline] the “Average Absorbance” value (A549 cells; Table 9, 10 μM) was 0.5681, the “Percent Survival” value (A549 cells; Table 9, 10 μM) was 89.1% and the “Average Absorbance” value (A549 cells; Table 9, 20 μM) was 0.3864. The “Percent Survival” value (A549 cells; Table 9, 20 μM) was 60.6%, the “Average Absorbance” value (A549 cells; Table 9, 30 μM) was 0.2159 and the “Percent Survival” value (A549 cells; Table 9, 30 μM) was 33.86%. The “Average Absorbance” value (A549 cells; Table 9, 40 μM) was 0.0585, the “Percent Survival” value (A549 cells; Table 9, 40 μM) was 9.174% and the “Average Absorbance” value (A549 cells; Table 9, 50 μM) was 0.0047. The “Percent Survival” value (A549 cells; Table 9, 50 μM) was 0.7371%, the “Average Absorbance” value (A549 cells; Table 9, 60 μM) was 0.03173 and the “Percent Survival” value (A549 cells; Table 9, 60 μM) was 4.976%. For the same compound, the “Average Absorbance” value (A549 cells; Table 9, 70 μM) was −0.001567 and the “Percent Survival” value (A549 cells; Table 9, 70 μM) was −0.2457%.
For Caffeine, the “Average Absorbance” value (A549 cells; Table 9, 10 μM) was 0.4606, the “Percent Survival” value (A549 cells; Table 9, 10 μM) was 72.24% and the “Average Absorbance” value (A549 cells; Table 9, 20 μM) was 0.3935. For the same compound, the “Percent Survival” value (A549 cells; Table 9, 20 μM) was 61.71%, the “Average Absorbance” value (A549 cells; Table 9, 30 μM) was 0.2016 and the “Percent Survival” value (A549 cells; Table 9, 30 μM) was 31.62%. The “Average Absorbance” value (A549 cells; Table 9, 40 μM) was 0.08893, the “Percent Survival” value (A549 cells; Table 9, 40 μM) was 13.95% and the “Average Absorbance” value (A549 cells; Table 9, 50 μM) was 0.04983. The “Percent Survival” value (A549 cells; Table 9, 50 μM) was 7.815%, the “Average Absorbance” value (A549 cells; Table 9, 60 μM) was 0.06103 and the “Percent Survival” value (A549 cells; Table 9, 60 μM) was 9.571%. The “Average Absorbance” value (A549 cells; Table 9, 70 μM) was 0.05103 and the “Percent Survival” value (A549 cells; Table 9, 70 μM) was 8.003%.
Methylene blue was tested, and the “Average Absorbance” value (A549 cells; Table 6, 10 μM) was 2.3750, the “Percent Survival” value (A549 cells; Table 6, 10 μM) was 100.5887% and the “Average Absorbance” value (A549 cells; Table 6, 20 μM) was 2.2927. The “Percent Survival” value (A549 cells; Table 6, 20 μM) was 97.1030%, the “Average Absorbance” value (A549 cells; Table 6, 30 μM) was 2.2510 and the “Percent Survival” value (A549 cells; Table 6, 30 μM) was 95.3369%. The “Average Absorbance” value (A549 cells; Table 6, 40 μM) was 1.5702, the “Percent Survival” value (A549 cells; Table 6, 40 μM) was 66.5029% and the “Average Absorbance” value (A549 cells; Table 6, 50 μM) was 0.8542. For the same compound, the “Percent Survival” value (A549 cells; Table 6, 50 μM) was 36.1781%, the “Average Absorbance” value (A549 cells; Table 6, 60 μM) was 1.1911 and the “Percent Survival” value (A549 cells; Table 6, 60 μM) was 50.4468%. The “Average Absorbance” value (A549 cells; Table 6, 70 μM) was 0.9505, the “Percent Survival” value (A549 cells; Table 6, 70 μM) was 40.2567% and the IC50 (A549 cells; Table 7, linear trend from percent survival vs. concentration data) was 56.4 µM. For the same compound, the “Average Absorbance” value (A549 cells; Table 8, 10 μM) was 2.5299, the “Percent Survival” value (A549 cells; Table 8, 10 μM) was 103.5613% and the “Average Absorbance” value (A549 cells; Table 8, 20 μM) was 2.1653. The “Percent Survival” value (A549 cells; Table 8, 20 μM) was 88.6365%, the “Average Absorbance” value (A549 cells; Table 8, 30 μM) was 1.6536 and the “Percent Survival” value (A549 cells; Table 8, 30 μM) was 67.6900%. The “Average Absorbance” value (A549 cells; Table 8, 40 μM) was 0.7522, the “Percent Survival” value (A549 cells; Table 8, 40 μM) was 30.7913% and the “Average Absorbance” value (A549 cells; Table 8, 50 μM) was 0.6302. For the same compound, the “Percent Survival” value (A549 cells; Table 8, 50 μM) was 25.7972%, the “Average Absorbance” value (A549 cells; Table 8, 60 μM) was 0.7701 and the “Percent Survival” value (A549 cells; Table 8, 60 μM) was 31.5240%. For the same compound, the “Average Absorbance” value (A549 cells; Table 8, 70 μM) was 0.7481 and the “Percent Survival” value (A549 cells; Table 8, 70 μM) was 30.6234%.
In the case of Safranin, the “Average Absorbance” value (A549 cells; Table 9, 10 μM) is reported as 0.4933, the “Percent Survival” value (A549 cells; Table 9, 10 μM) is reported as 77.35% and the “Average Absorbance” value (A549 cells; Table 9, 20 μM) is reported as 0.4394. For the same compound, the “Percent Survival” value (A549 cells; Table 9, 20 μM) was 68.9%, the “Average Absorbance” value (A549 cells; Table 9, 30 μM) was 0.2197 and the “Percent Survival” value (A549 cells; Table 9, 30 μM) was 34.46%. For the same compound, the “Average Absorbance” value (A549 cells; Table 9, 40 μM) was 0.07453, the “Percent Survival” value (A549 cells; Table 9, 40 μM) was 11.69% and the “Average Absorbance” value (A549 cells; Table 9, 50 μM) was 0.05293. For the same compound, the “Percent Survival” value (A549 cells; Table 9, 50 μM) was 8.301%, the “Average Absorbance” value (A549 cells; Table 9, 60 μM) was 0.0432 and the “Percent Survival” value (A549 cells; Table 9, 60 μM) was 6.775%. The “Average Absorbance” value (A549 cells; Table 9, 70 μM) was 0.05447 and the “Percent Survival” value (A549 cells; Table 9, 70 μM) was 8.541%.
